Measured values from ChEMBL document CHEMBL1201862, “PubChem BioAssay data set” (2004).
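Exposure lasted 48 hours, with cells grown in 96-well plates and compounds tested at five concentrations. Here, GI50 denotes the concentration required for 50% inhibition of growth.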 Calls of active or inactive are those of the source. Cut-off read from the data, not from the text of the source: active = GI50 up to about 1.1 µM and inactive = higher.

Legend:
Test in all cases: NCI anticancer screen, dose series, 48 h
[1] = tested on: KM12
[2] = tested on: IGROV-1
[3] = tested on: OVCAR-3
[4] = tested on: UO-31
[5] = tested on: NCI-H226
[6] = tested on: SK-OV-3
[7] = tested on: EKVX
[8] = tested on: MDA-N
[9] = tested on: SK-MEL-28
[10] = tested on: M14
[11] = tested on: MDA-MB-435
[12] = tested on: COLO 205
[13] = tested on: NCI/ADR-RES
[14] = tested on: Hs-578T
[15] = tested on: OVCAR-5
[16] = tested on: BT-549
[17] = tested on: OVCAR-8
[18] = tested on: HCT-116
[19] = tested on: A498
[20] = tested on: SF-268
[21] = tested on: SK-MEL-5
[22] = tested on: CAKI-1
[23] = tested on: RXF 393
[24] = tested on: SNB-19
[25] = tested on: LOX IMVI
[26] = tested on: HOP-62
[27] = tested on: HT-29
[28] = tested on: A549
[29] = tested on: U-251
[30] = tested on: OVCAR-4
[31] = tested on: SN12C
[32] = tested on: K562
[33] = tested on: HCC 2998
[34] = tested on: MCF7
[35] = tested on: UACC-62
[36] = tested on: 786-0
[37] = tested on: Malme-3M
[38] = tested on: HOP-92
[39] = tested on: SW-620
[40] = tested on: MOLT-4
[41] = tested on: NCI-H460
[42] = tested on: NCI-H23
[43] = tested on: SR
[44] = tested on: ACHN
[45] = tested on: HCT-15
[46] = tested on: TK-10
[47] = tested on: SF-295
[48] = tested on: PC-3
[49] = tested on: UACC-257
[50] = tested on: HL-60
[51] = tested on: RPMI-8226
[52] = tested on: SF-539
[53] = tested on: CCRF-CEM
[54] = tested on: SK-MEL-2

SMILES: CCN(CC)CCNc1n[n+]([O-])c2cc([N+](=O)[O-])ccc2[n+]1[O-]
- GI50 [1]: 0.543 µM (active)
- GI50 [2]: 0.132 µM (active)
- GI50 [3]: 0.849 µM (active)
- GI50 [4]: 1.49 µM (inactive)
- GI50 [5]: 1.87 µM (inactive)
- GI50 [6]: 0.729 µM (active)
- GI50 [7]: 1.9 µM (inactive)
- GI50 [8]: 0.562 µM (active)
- GI50 [9]: 5.35 µM (inactive)
- GI50 [10]: 0.423 µM (active)
- GI50 [11]: 0.826 µM (active)
- GI50 [12]: 0.348 µM (active)
- GI50 [13]: 1.11 µM (active)
- GI50 [14]: 3.11 µM (inactive)
- GI50 [15]: 1.47 µM (inactive)
- GI50 [16]: 1.81 µM (inactive)
- GI50 [17]: 0.391 µM (active)
- GI50 [18]: 0.318 µM (active)
- GI50 [19]: 1.08 µM (active)
- GI50 [20]: 0.661 µM (active)
- GI50 [21]: 0.362 µM (active)
- GI50 [22]: 0.204 µM (active)
- GI50 [23]: 1.47 µM (inactive)
- GI50 [24]: 1.28 µM (inactive)
- GI50 [25]: 0.467 µM (active)
- GI50 [26]: 0.385 µM (active)
- GI50 [27]: 0.252 µM (active)
- GI50 [28]: 0.678 µM (active)
- GI50 [29]: 0.701 µM (active)
- GI50 [30]: 0.828 µM (active)

SMILES: O=C(C(=C(I)I)c1ccccc1)c1ccccc1
- GI50 [31]: 24 µM (inactive)
- GI50 [2]: 8.63 µM (inactive)
- GI50 [3]: 20.9 µM (inactive)
- GI50 [32]: 4.7 µM (inactive)
- GI50 [4]: 20.8 µM (inactive)
- GI50 [6]: 59.6 µM (inactive)
- GI50 [7]: 28.8 µM (inactive)
- GI50 [33]: > 10 µM (inactive)
- GI50 [34]: 49.8 µM (inactive)
- GI50 [8]: 19.1 µM (inactive)
- GI50 [9]: 30.7 µM (inactive)
- GI50 [35]: 18.2 µM (inactive)
- GI50 [10]: 25 µM (inactive)
- GI50 [11]: 31.1 µM (inactive)
- GI50 [12]: 27.5 µM (inactive)
- GI50 [36]: > 10 µM (inactive)
- GI50 [37]: 19.7 µM (inactive)
- GI50 [38]: 33 µM (inactive)
- GI50 [13]: 28.6 µM (inactive)
- GI50 [14]: 16.1 µM (inactive)
- GI50 [15]: 86.3 µM (inactive)
- GI50 [16]: 55.7 µM (inactive)
- GI50 [17]: 37.2 µM (inactive)
- GI50 [18]: 17.1 µM (inactive)
- GI50 [19]: 13.1 µM (inactive)
- GI50 [39]: 28.8 µM (inactive)
- GI50 [20]: 22.6 µM (inactive)
- GI50 [40]: 19.8 µM (inactive)
- GI50 [41]: 27.5 µM (inactive)
- GI50 [21]: 16.8 µM (inactive)
- GI50 [22]: 38.4 µM (inactive)
- GI50 [42]: 21 µM (inactive)
- GI50 [43]: 14.2 µM (inactive)
- GI50 [44]: 29.7 µM (inactive)
- GI50 [45]: 29.9 µM
- GI50 [46]: 28.4 µM (inactive)
- GI50 [47]: 21.7 µM (inactive)
- GI50 [48]: 28.4 µM (inactive)
- GI50 [24]: 29.9 µM (inactive)
- GI50 [49]: 37.4 µM (inactive)
- GI50 [50]: 13.2 µM (inactive)
- GI50 [26]: 19.2 µM (inactive)
- GI50 [51]: 19.5 µM (inactive)
- GI50 [27]: 33.6 µM (inactive)
- GI50 [28]: 36.9 µM (inactive)
- GI50 [52]: 24.8 µM (inactive)
- GI50 [53]: 1.08 µM (active)
- GI50 [54]: 16.1 µM (inactive)
- GI50 [30]: 39.9 µM (inactive)
